The values that follow come from US20230277669A1, “USES OF UROLITHINS” (Amazentis SA, priority 2022, published 2023).

For data set [1] the following is noted: commercially-available supplements containing urolithin A; cited from earlier work.
Another data set deals with CD19-CAR T cells. Briefly: CD19-CAR T cell generation in presence of UA. In kind it is cell-based, human.
The next data set concerns CD3+ cells. Briefly: Western blot, fractionation and immunofluorescence of stimulated CD3+ cells. In kind it is cell-based. The procedure: (FIG. 4A) Scheme of CD3+ T-cell activation and analysis for various timepoints in order to investigate mitophagy induction in vitro. (FIG. 4B) Analysis of mitochondrial membrane potential within CD8+ T cells, with TMRM^lo representing cells with low mitochondrial membrane potential. Analysis was performed six hours after stimulation with aCD/aCD28 stimulation beads at the presence of the indicated treatments. N=4 per group, *p < 0.05 by Mann Whitney U test. One of two independent experiments are shown. (FIG. 4C) Representative flow histogram and quantification of lysosome formation in CD8+ cells six hours after in vitro stimulation. MFI shown relative to DMSO controls, n=4. Data are normalised mean ± SD, statistical analysis by two-sided t-test. One out of two independent experiments are shown. (FIG. 4D) Mitotracker Red staining of in vitro stimulated CD8+ cells after 24 hours of Urolithin A (UA25 n=6; UA50 n=6) or vehicle control treatment (DMSO: n=4). A representative flow histogram depicting identification of Mitotracker^hi cells is shown. Data are mean ± SD, statistical analysis was performed by two-sided t-test (*p < 0.05; ***p <0.001; ****p < 0.0001). Experiment was repeated twice. (FIG. 4E) Subset-specific identification of Mitotracker red accumulation after 24 hours of in vitro stimulation either with vehicle control (DMSO) or 50 µM Urolithin A (n=5). Subsets were identified was depicted in the FIGS. 7-9. Data are mean ± SD, statistical analysis by two-sided t-test (* p<0.05, *** p<0.001 and **** p<0.0001). (FIG. 4F) qPCR analysis of various autophagy/mitophagy associated genes of in vitro activated CD3+ cells, 24 h after activation (n=3). Data are ± SEM, statistical analysis was performed by two-sided t-test (*p < 0.05,**p < 0.01). Overall p value is given for the comparison over the entire panel of genes after two-way ANOVA test. (FIG. 4G) Western blot of Parkin protein expression in UA or DMSO (n=3) treated cells after 24 h. Cells were stimulated at the presence of plate-bound aCD3/aCD28 antibodies. […] (FIG. 4H) CD8+ cells from Pink1^-/- mice display deficient mitophagy upon UA treatment in vitro: Lysosome formation in CD8+ of Pink1^-/- mice as assessed by Lysotracker staining 6h post stimulation at the presence of UA or DMSO (n=4). Data are mean ± SD, one out of two independent experiments are shown. (FIG. 4I) CD8+ cells from Pink1^-/- mice display deficient mitophagy upon UA treatment in vitro: Mitotracker red staining of Pink1^-/- CD8+ stimulated in vitro for 48 h, either in the presence of UA or DMSO (n=4). Percentage of Mitotracker^hi CD8+ cells are shown. Data are mean ± SD and acquired via flow cytometry. […] Quantification of TCF1^hi cells among CD8. (FIG. 4N) Quantification of PD1^hi cells among CD8. (FIG. 4O) Quantification of and Tim3^hi cells among CD8. […]
(Immunoblotting shows a protein as a band on a membrane.)

Data set [2] relates to Th1/Th17 cell infiltration. Particulars: in vivo; cited from earlier work.

Consider `O=c1oc2cc(O)ccc2c2ccc(O)cc12` [Urolithin A], for which, in data set [1], the bioavailability profile result is recorded as “favourable bioavailability profile” and the safety entry is recorded as “deemed safe”. For the same compound, the “gene delivery into CD8+ cells” value with CD19-CAR T cells is “did not impair gene delivery”. Moreover, in the data set on CD19-CAR T cells (UA supplementation), the markers of exhaustion entry is on record as “not affected”. For the same compound, in the data set on CD19-CAR T cells (three days post transduction, upon UA exposure), the “CAR expressing TSCM cells among CD8+ cells” value is given as “about 60%”. Further, the “phosphorylation of Stat1” value in the data set with CD3+ cells (6 h, compared to vehicle controls) was “equal phosphorylation of Stat1”. Further, in the data set with CD3+ cells (24 h), the “Parkin protein expression (Western blot)” value is recorded as “stabilized Parkin protein expression”. The b-catenin phosphorylation entry in the data set on CD3+ cells (after 6 hours) is given as “marked decrease”. Besides, in the data set with CD3+ cells (six hours), the “Pgam5 localization (sub-cellular fractionation, immunofluorescence)” value was “rapidly released into the cytoplasma”. Further, the Th1/Th17 cell infiltration result in data set [2] is “blocking Th1/Th17 cell infiltration”.
